In patent publication US8288433B2, “Diazeniumdiolate compounds, a process for their preparation and pharmaceutical compositions containing them” (Les Laboratoires Servier, priority 2007, dated 2012):
pIC50: −log10 of the molar value. Blank lines part the entries; values can stand above or below the compound they belong to.

Key:
[1] = test system: SD rats anaesthetised with pentobarbital; assay: NO-donor activity in vivo, reduction of arterial pressure in anaesthetised rats; conditions: i.v. dose of 100 μg/kg
Procedure: The NO-donor effect of the compound is evaluated by the reduction in pressure caused in SD rats anaesthetised with pentobarbital. After stabilisation of the arterial pressure, the product under test is administered i.v. in increasing doses.

[2] = test system: Aorta rings without endothelium; assay: NO-donor activity in vitro, relaxation of noradrenaline-contracted aorta rings; conditions: aorta rings without endothelium contracted by noradrenaline (0.1-0.3 μM); read-out: IC50 (relaxant effect)
Procedure: Aorta rings without endothelium are used. After a first contraction induced by 60 mM KCl to characterise the sensitivity of the ring, and washing, a stable contraction is induced by noradrenaline (0.1-0.3 μM) in the presence or absence of ODQ. A cumulative concentration series is applied and the activity of the product under test is calculated by an IC50 (dose that inhibits the maximum effect by 50%).

conscious Wistar rats = assay: Diuretic effect in vivo, urine volume in conscious rats; conditions: oral dose of 10 mg/kg, urine volume after 6 hours, relative to control group
Procedure: The diuretic effect is tested on conscious Wistar rats. The animals are subjected to fasting for 18 h before the experiment and put on a diet of water 90 minutes before the experiment. The product under test is then administered orally by force-feeding, the rat is placed in a metabolism cage and the volume of urine is measured after 6 hours. The volume is expressed in relation to the volume measured in a control group of rats.

- pIC50 [2]: 7.40
SMILES: CCN(CC)/[N+]([O-])=N/OCOC(=O)c1ccc(CNS(=O)(=O)c2cc(C(=O)NN3c4ccccc4C[C@H]3C)ccc2Cl)cc1 [Example 10, ({[(1Z)-2,2-diethyl-1-oxidohydrazono]amino}oxy)methyl 4-({[(2-chloro-5-{[(2R)-2-methyl-2,3-dihydro-1H-indol-1-yl]carbamoyl}phenyl)-sulphonyl]amino}methyl)benzoate]
- reduction of the arterial pressure [1]: 55%
- increase of the excretion of urine (conscious Wistar rats): 248%

SMILES: CCN(CC)/[N+]([O-])=N/OCOC(=O)c1cccc(CNS(=O)(=O)c2cc(C(=O)NN3c4ccc([N+](=O)[O-])cc4CC3C)ccc2Cl)c1 (stereo not drawn) [Example 1]
- reduction of the arterial pressure [1]: 56%
- pIC50 [2]: 6.92
- increase of the excretion of urine (conscious Wistar rats): 108%
